Data published in PubChem BioAssay (NCI).
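Interpolation was linear, between the two tested concentrations surrounding the appropriate level; five concentrations were tested over 48 hours in 96-well plates. Abbreviation: GI50, concentration required for 50% inhibition of growth. TGI: total growth inhibition.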

Experiments:
Experiment in all cases: NCI tumour cell line growth inhibition, 48 h
CAKI-1 renal = system: CAKI-1 renal
SK-MEL-2 melanoma = system: SK-MEL-2 melanoma
MDA-MB-435 = system: MDA-MB-435
SW-620 colon = system: SW-620 colon
RPMI-8226 leukemia = system: RPMI-8226 leukemia
MDA-MB-231 breast = system: MDA-MB-231 breast
SF-268 CNS = system: SF-268 CNS
HOP-92 NSCLC = system: HOP-92 NSCLC
T-47D breast = system: T-47D breast
A498 renal = system: A498 renal
NCI-H460 lung = system: NCI-H460 lung
DU-145 prostate = system: DU-145 prostate
UACC-62 melanoma = system: UACC-62 melanoma
NCI/ADR-RES ovarian = system: NCI/ADR-RES ovarian
K-562 leukemia = system: K-562 leukemia
PC-3 prostate = system: PC-3 prostate
OVCAR-8 ovarian = system: OVCAR-8 ovarian
U251 CNS = system: U251 CNS
HCT-116 colon = system: HCT-116 colon
HL-60(TB) leukemia = system: HL-60(TB) leukemia
EKVX NSCLC = system: EKVX NSCLC
OVCAR-5 ovarian = system: OVCAR-5 ovarian
SNB-19 CNS = system: SNB-19 CNS
HCC-2998 colon = system: HCC-2998 colon
OVCAR-4 ovarian = system: OVCAR-4 ovarian
UACC-257 melanoma = system: UACC-257 melanoma
SK-OV-3 ovarian = system: SK-OV-3 ovarian
CCRF-CEM leukemia = system: CCRF-CEM leukemia

**Q.** Which results are given for C#Cc1nc(C(=O)NCCCCCCC(=O)NO)cs1?
**A.** GI50 (CAKI-1 renal): 0.997 µM; TGI (CAKI-1 renal): 2.31 µM; GI50 (SK-MEL-2 melanoma): 1.25 µM; TGI (SK-MEL-2 melanoma): 3.54 µM; GI50 (MDA-MB-435): 0.692 µM; TGI (MDA-MB-435): 3.45 µM; GI50 (SW-620 colon): 0.346 µM; TGI (SW-620 colon): 1.82 µM; GI50 (RPMI-8226 leukemia): 0.312 µM; TGI (RPMI-8226 leukemia): 1.55 µM; GI50 (MDA-MB-231 breast): 0.318 µM; TGI (MDA-MB-231 breast): 1.1 µM; GI50 (SF-268 CNS): 1.53 µM; TGI (SF-268 CNS): 3.44 µM; GI50 (HOP-92 NSCLC): 0.571 µM; TGI (HOP-92 NSCLC): 1.81 µM; GI50 (T-47D breast): 0.288 µM; TGI (T-47D breast): 1.54 µM; GI50 (A498 renal): 0.528 µM; TGI (A498 renal): 1.78 µM; GI50 (NCI-H460 lung): 0.587 µM; TGI (NCI-H460 lung): 7.25 µM; GI50 (DU-145 prostate): 0.367 µM; TGI (DU-145 prostate): 1.44 µM; GI50 (UACC-62 melanoma): 0.433 µM; TGI (UACC-62 melanoma): 2.05 µM; GI50 (NCI/ADR-RES ovarian): 0.335 µM; TGI (NCI/ADR-RES ovarian): > 100 µM; GI50 (K-562 leukemia): 0.639 µM; TGI (K-562 leukemia): > 100 µM; GI50 (PC-3 prostate): 1.83 µM; TGI (PC-3 prostate): 10.1 µM; GI50 (OVCAR-8 ovarian): 0.405 µM; TGI (OVCAR-8 ovarian): 2.11 µM; GI50 (U251 CNS): 1.12 µM; TGI (U251 CNS): 2.39 µM; GI50 (HCT-116 colon): 0.339 µM; TGI (HCT-116 colon): 1.56 µM; GI50 (HL-60(TB) leukemia): 0.314 µM; TGI (HL-60(TB) leukemia): 0.805 µM; GI50 (EKVX NSCLC): 1.55 µM; TGI (EKVX NSCLC): 3.19 µM; GI50 (OVCAR-5 ovarian): 1.03 µM; TGI (OVCAR-5 ovarian): 3.58 µM; GI50 (SNB-19 CNS): 2.21 µM; TGI (SNB-19 CNS): 10 µM; GI50 (HCC-2998 colon): 1.71 µM; TGI (HCC-2998 colon): 4.43 µM; GI50 (OVCAR-4 ovarian): 1.8 µM; TGI (OVCAR-4 ovarian): 5.12 µM; GI50 (UACC-257 melanoma): 0.393 µM; TGI (UACC-257 melanoma): 2.84 µM; GI50 (SK-OV-3 ovarian): 1.47 µM; TGI (SK-OV-3 ovarian): 4.01 µM; GI50 (CCRF-CEM leukemia): 0.284 µM
